In US8686044B2, “Amide derivative, pest control agent containing the amide derivative, and use of the amide derivative” (Mitsui Chemicals Agro, Inc., priority 2008, dated 2014):

Assays:
Format in all cases: in vivo
Spodoptera litura = experiment: Pesticidal test against Spodoptera litura (cabbage leaf dip); conditions: foliar, 144 h, concentration 1 ppm, 2-stage larvae, examined after 6 days, 25° C., read-out: pesticidal rate
Procedure, shortened: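 Cabbage leaf pieces dipped 30 seconds in compound solution at a predetermined concentration and air-dried, then offered to second-stage larvae, five per group in two replicates. Held at 25° C. Living and dead larvae counted after 6 days.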

Plutella xylostella = experiment: Pesticidal test against Plutella xylostella (cabbage leaf dip); conditions: foliar, 144 h, 2-stage larvae, examined after 6 days, 25° C., read-out: pesticidal rate; for pest or weed control at 1 ppm: concentration 1 ppm
Procedure, shortened: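 Second-stage larvae (5 per group, two replicates) were released onto air-dried cabbage leaf discs that had been immersed for 30 seconds in compound solution at a set concentration. Mortality was scored after 6 days at 25° C.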

Laodelphax striatellus = experiment: Pesticidal test against Laodelphax striatellus (rice seedling spray); conditions: 144 h, concentration 100 ppm, 3-stage larvae, examined after 6 days, 25° C., read-out: pesticidal rate
Experimental: Pesticidal Test against Laodelphax striatellus
2.5 ml of an acetone solution in which a test compound had been prepared at a predetermined concentration was sprayed on rice seedlings, air-dried, and then put into a glass tube having a diameter of 3 cm and a height of 13 cm, having water therein, and 3-stage larvae of Laodelphax striatellus were released and the tube was capped. They were left to stand in a thermostatic chamber at 25° C., and the numbers of the living pests and the dead pests were examined after 6 days. The test was carried out with ten larvae per group in two replicates.

CN(C(=O)c1ccc(C#N)cc1)c1cccc(C(=O)Nc2c(I)cc(C(F)(C(F)(F)F)C(F)(F)F)cc2C(F)(F)F)c1 [7-445]
≥ 70%: pest or weed control at 1 ppm (Spodoptera litura) | pest or weed control at 1 ppm (Plutella xylostella) | pest or weed control at 100 ppm (Laodelphax striatellus)

CN(C(=O)c1cccnc1Cl)c1cccc(C(=O)Nc2c(I)cc(C(F)(C(F)(F)F)C(F)(F)F)cc2C(F)(F)F)c1 [7-460]
≥ 70%: pest or weed control at 1 ppm (Spodoptera litura) | pest or weed control at 1 ppm (Plutella xylostella) | pest or weed control at 100 ppm (Laodelphax striatellus)

CN(C(=O)c1ccc(Cl)nc1)c1cccc(C(=O)Nc2c(I)cc(C(F)(C(F)(F)F)C(F)(F)F)cc2C(F)(F)F)c1 [7-467]
≥ 70%: pest or weed control at 1 ppm (Spodoptera litura) | pest or weed control at 1 ppm (Plutella xylostella) | pest or weed control at 100 ppm (Laodelphax striatellus)

CN(C(=O)c1ccc(C#N)cc1)c1cccc(C(=O)Nc2c(C(F)(F)F)cc(C(F)(C(F)(F)F)C(F)(F)F)cc2C(F)(F)F)c1 [7-825]
≥ 70%: pest or weed control at 1 ppm (Spodoptera litura) | pest or weed control at 10 ppm (Plutella xylostella; concentration 10 ppm) | pest or weed control at 100 ppm (Laodelphax striatellus)

CN(C(=O)c1cccnc1Cl)c1cccc(C(=O)Nc2c(C(F)(F)F)cc(C(F)(C(F)(F)F)C(F)(F)F)cc2C(F)(F)F)c1 [7-840]
≥ 70%: pest or weed control at 1 ppm (Spodoptera litura) | pest or weed control at 1 ppm (Plutella xylostella) | pest or weed control at 100 ppm (Laodelphax striatellus)

CN(C(=O)c1ccccc1)c1cccc(C(=O)Nc2c(Cl)cc(C(F)(C(F)(F)F)C(F)(F)F)cc2Cl)c1F [7-948]
≥ 70%: pest or weed control at 1 ppm (Spodoptera litura) | pest or weed control at 1 ppm (Plutella xylostella) | pest or weed control at 100 ppm (Laodelphax striatellus)

CN(C(=O)c1cccnc1Cl)c1cccc(C(=O)Nc2c(Cl)cc(C(F)(C(F)(F)F)C(F)(F)F)cc2Cl)c1F [7-984]
≥ 70%: pest or weed control at 1 ppm (Spodoptera litura) | pest or weed control at 1 ppm (Plutella xylostella) | pest or weed control at 100 ppm (Laodelphax striatellus)

CN(C(=O)c1cccnc1Cl)c1cccc(C(=O)Nc2c(Br)cc(C(F)(C(F)(F)F)C(F)(F)F)cc2Br)c1F [7-1140]
≥ 70%: pest or weed control at 1 ppm (Spodoptera litura) | pest or weed control at 1 ppm (Plutella xylostella) | pest or weed control at 100 ppm (Laodelphax striatellus)

CN(C(=O)c1ccc(Cl)nc1)c1cccc(C(=O)Nc2c(Br)cc(C(F)(C(F)(F)F)C(F)(F)F)cc2Br)c1F [7-1147]
≥ 70%: pest or weed control at 1 ppm (Spodoptera litura) | pest or weed control at 1 ppm (Plutella xylostella) | pest or weed control at 100 ppm (Laodelphax striatellus)

CN(C(=O)c1ccccc1)c1cccc(C(=O)Nc2c(Br)cc(C(F)(C(F)(F)F)C(F)(F)C(F)(F)F)cc2Br)c1F (stereo not drawn) [7-1182, N-(2,6-dibromo-4-(perfluorobutan-2-yl)phenyl)-2-fluoro-3-(N-methylbenzamide)benzamide]
≥ 70%: pest or weed control at 1 ppm (Spodoptera litura) | pest or weed control at 1 ppm (Plutella xylostella) | pest or weed control at 100 ppm (Laodelphax striatellus)

CN(C(=O)c1ccccc1F)c1cccc(C(=O)Nc2c(Br)cc(C(F)(C(F)(F)F)C(F)(F)C(F)(F)F)cc2Br)c1F (stereo not drawn) [7-1183]
≥ 70%: pest or weed control at 1 ppm (Spodoptera litura) | pest or weed control at 1 ppm (Plutella xylostella) | pest or weed control at 100 ppm (Laodelphax striatellus)

CN(C(=O)c1cccc(F)c1)c1cccc(C(=O)Nc2c(Br)cc(C(F)(C(F)(F)F)C(F)(F)C(F)(F)F)cc2Br)c1F (stereo not drawn) [7-1184]
≥ 70%: pest or weed control at 1 ppm (Spodoptera litura) | pest or weed control at 1 ppm (Plutella xylostella) | pest or weed control at 100 ppm (Laodelphax striatellus)

CN(C(=O)c1ccc(F)cc1)c1cccc(C(=O)Nc2c(Br)cc(C(F)(C(F)(F)F)C(F)(F)C(F)(F)F)cc2Br)c1F (stereo not drawn) [7-1185]
≥ 70%: pest or weed control at 1 ppm (Spodoptera litura) | pest or weed control at 1 ppm (Plutella xylostella) | pest or weed control at 100 ppm (Laodelphax striatellus)

CN(C(=O)c1ccc(C#N)cc1)c1cccc(C(=O)Nc2c(Br)cc(C(F)(C(F)(F)F)C(F)(F)C(F)(F)F)cc2Br)c1F (stereo not drawn) [7-1203]
≥ 70%: pest or weed control at 1 ppm (Spodoptera litura) | pest or weed control at 1 ppm (Plutella xylostella) | pest or weed control at 100 ppm (Laodelphax striatellus)

CN(C(=O)c1c(F)cccc1F)c1cccc(C(=O)Nc2c(Br)cc(C(F)(C(F)(F)F)C(F)(F)C(F)(F)F)cc2Br)c1F (stereo not drawn) [7-1204]
≥ 70%: pest or weed control at 1 ppm (Spodoptera litura) | pest or weed control at 1 ppm (Plutella xylostella) | pest or weed control at 100 ppm (Laodelphax striatellus)

CN(C(=O)c1cccnc1Cl)c1cccc(C(=O)Nc2c(Br)cc(C(F)(C(F)(F)F)C(F)(F)C(F)(F)F)cc2Br)c1F (stereo not drawn) [7-1218]
≥ 70%: pest or weed control at 1 ppm (Spodoptera litura) | pest or weed control at 1 ppm (Plutella xylostella) | pest or weed control at 100 ppm (Laodelphax striatellus)
